Laboratory results as given in US8729088B2, “Toll-like receptor modulators and treatment of diseases” (The Regents of the University of California, priority 2009, dated 2014).

How the values were obtained:
TLR7 = test: Cytokine induction in BMDM from wild type and TLR7 deficient mice; type: cell-based, mouse; conditions: BMDM from TLR7 deficient mice
Protocol: In vitro measurements of cytokine induction were performed using the mouse leukemic monocyte macrophage cell line, RAW264.7. […] BMDM were prepared from C57BL/6 and TLR7 deficient mice as described in Wu, C. C et al., (2007) “Immunotherapeutic activity of a conjugate of a Toll-like receptor 7 ligand”, Proc Natl Acad Sci USA 104, 3990-5.
In general, RAW264.7 cells or BMDM were incubated with various concentrations of conjugates for 18 hours at 37° C., 5% CO2 and culture supernatants were collected. The levels of cytokines (IL-6, IL-12 or TNF-α in the supernatants were determined by ELISA (BD Biosciences Pharmingen, La Jolla, Calif.) (Cho, H. J et al., “Immunostimulatory DNA-based vaccines induce cytotoxic lymphocyte activity by a T-helper cell-independent mechanism” [see comments], Nat Biotechnol 18, 509-14 (2000)), and the results presented in FIG. 2A-D. Data are mean±SEM of triplicates and are representative of three independent experiments. Minimum detection levels of these cytokines were 15 pg/mL.

C57BL/6 mice [1] = test: Thioglycolate induced peritonitis (peritoneal neutrophil infiltration); conditions: 50 nmoles i.v. for three days before thioglycolate
Protocol: (§1) Peritoneal cells were collected four hours after TG injection. Total cells were counted by haematocytometer and neutrophils were morphologically identified.
(§2) 4 hours post TG injection total peritoneal cells were harvested and counted. Neutrophils were identified morphologically and counted.
(§3) One day after the last treatment, mice received intraperitoneal injection of 2 ml thioglycollate medium. […] Three hours after the thioglycollate injection, neutrophil infiltration to the peritoneum was evaluated.

mice = conditions: cited from earlier work
C57BL/6 mice [2] = conditions: mouse, in vivo
Protocol: as §1, §2, §3

[3] = system: pro-inflammatory cytokines (IL-6, TNF-α) in sera; test: In vivo kinetics of pro-inflammatory cytokine induction after intravenous injection; parameters: species or system mouse; conditions: 200 nmol per animal i.v.
Protocol: The pharmacokinetics of pro inflammatory cytokine induction by TLR7 conjugates was examined using 6- to 8-week old C57BL/6 mice. […] Blood samples were collected 2, 4, 6, 24 or 48 hours after injections. Sera were separated and kept at −20° C. until use.

Solubility observations = type: physicochemical

SMILES: COCCOc1nc(N)c2nc(O)n(Cc3ccccc3)c2n1 [SM, 9-benzyl-8-hydroxy-2-(2-methoxyethoxy) adenine, reference compound]
- IL-12 and IL-6 induction (TLR7): little or no IL-12 and IL-6
- neutrophils recruited to the peritoneum (C57BL/6 mice [1]): reduction
- total cells recruited to the peritoneum (C57BL/6 mice [1]): reduction
- adverse effects in mice (mice; Hayashi et al. 2008): anorexic effects and hypothermia
- minimum dose that induced the anorectic reaction (mice; mucosal administration): 50 nmoles per mice
- adverse reaction compared to TG (C57BL/6 mice [2]): no additional adverse reaction
- course of serum cytokine levels [3]: declined rapidly after 2 hours
- solubility in aqueous solution (Solubility observations): insoluble
